The assay has as its system GST-p53 DNA binding domain (aa 92-aa 312). Kind of assay: Scintillation Proximity Assay (displacement of 3H-labeled p53 binder). Particulars: percentage of 3H-labeled ligand remaining bound, number in brackets = average of n. The protocol: [drawing 38] (^3H at C bearing the chlorophenyl groups and the piperazinyl group), a radiolabeled small molecule which binds to p53, and the GST-p53 DNA binding domain (aa 92-aa 312), a quantitative screening assay was used to determine if various molecules comprise p53 binding activity. The assay is based on Scintillation Proximity Assay (SPA) technology. The complex of GST-p53,
[drawing 39] and Glutathione-SPA beads (Amersham Biosciences) were incubated with mixing for 1 hour at room temperature in the presence of the compounds to be screened. The signal was read on a Microbeta.
The numerical values expressed refer to the percentage of labeled
[drawing 40] remaining bound to the mutant p53 protein after exposure to the indicated compound.
(In general: Scintillation proximity formats need no separation of bound from free tracer.)
As for `CN(C)CCCNc1nc(CN2CCN(C(c3ccc(Cl)cc3)c3ccc(Cl)cc3)CC2)nc2ccccc12` [Formula 8], the “SPA ASSAY % Residual T @ 2 ug/mL of drug (Average of)” value (shortened to “SPA ASSAY % Residual T @ 2 ug/mL”) was found to be 16.1%.
Take `CN(C)CCCNc1nc(CN2CCN(C(c3ccccc3)c3ccc(OC(F)(F)F)cc3)CC2)nc2ccccc12` (stereo not shown) [Formula 9]: the “SPA ASSAY % Residual T @ 2 ug/mL” value is listed as 27.9%.
With `CN(C)CCCNc1nc(CN2CCN(C(c3ccccc3)c3ccc(OC(F)(F)F)cc3)CC2)nc2ccccc12` (stereo not shown) [Formula 10] the figure was 46.1%; with `COC(=O)[C@@H](Nc1nc(CN2CCN(C(=O)Nc3ccc(C(C)C)cc3)CC2)nc2ccccc12)C(C)C` [Formula 11], 39.5%.
In the case of `COC(=O)[C@@H](Nc1nc(CN2CCN(C(=O)NC(c3ccccc3)c3ccccc3)CC2)nc2ccccc12)C(C)C` [Formula 12] it was 45.6%; in that of `CN(C)CCCNc1nc(CN2CCN(Cc3cccc4cc[nH]c34)CC2)nc2ccccc12` [Formula 13], 37.9%; in that of `CN(C)CCCNc1nc(CN2CCN(Cc3cccc4ccccc34)CC2)nc2ccccc12` [Formula 14], 27.9%.
In the case of `CCC(C)(C)C1CCC(N2CCN(Cc3nc(NCCCN(C)C)c4ccccc4n3)CC2)CC1` (stereo not shown) [Formula 15] it was 38.1%.
Regarding `COc1ccc(NC(=O)N2CCN(Cc3nc(NCCCN(C)C)c4ccccc4n3)CC2)cc1` [Formula 16], the “SPA ASSAY % Residual T @ 2 ug/mL” value was found to be 38.0%.
With `CN(C)CCCNc1nc(CN2CCN(C(=O)Nc3ccc(Cl)c(Cl)c3)CC2)nc2ccccc12` [Formula 17], the “SPA ASSAY % Residual T @ 2 ug/mL” value amounted to 29.9%.
With `O=c1[nH]c2ccccc2n1C1CCN(c2nc(CN3CCN(C(c4ccc(Cl)cc4)c4ccc(Cl)cc4)CC3)nc3ccccc23)CC1` [Formula 18], the “SPA ASSAY % Residual T @ 2 ug/mL” value is 47.9%.
`CN(Cc1ccccc1)Cc1nc2ccccc2c(=O)[nH]1` [Formula 34]: the “SPA ASSAY % Residual T @ 2 ug/mL” value was 36.8%.
In the case of `CN(C)CCCNc1nc(CN(C)Cc2ccccc2)nc2ccccc12` [Formula 35] it was 22.2%; in that of `CNCc1nc(NCCCN(C)C)c2ccccc2n1` [Formula 36], 42.6%; in that of `CN(C)CCCOc1nc(CN2CCN(C(c3ccc(Cl)cc3)c3ccc(Cl)cc3)CC2)nc2ccccc12` [Formula 37], 77.0%.
In the case of `CCC(C)(C)C1CCC(N2CCN(Cc3nc(NCCCN(C)C)c4ccccc4n3)CC2)C1` (stereo not shown) [Formula 38] it was 55.7%.
In the case of `Cc1cc(C)c(NC(=O)N2CCN(Cc3nc(NCCCN(C)C)c4ccccc4n3)CC2)c(C)c1` [Formula 39] it was 53.0%; in that of `CN(C)CCCNc1nc(CN2CCN(C(=O)Nc3ccc(C#N)cc3)CC2)nc2ccccc12` [Formula 40], 52.5%.
With `Clc1ccc(C(c2ccc(Cl)cc2)N2CCN(Cc3nc(N4CCOCC4)c4ccccc4n3)CC2)cc1` [Formula 41], the “SPA ASSAY % Residual T @ 2 ug/mL” value is 63.1%.
For the compound `OC1CCN(c2nc(CN3CCN(C(c4ccc(Cl)cc4)c4ccc(Cl)cc4)CC3)nc3ccccc23)C1` (stereo not shown) [Formula 42], the “SPA ASSAY % Residual T @ 2 ug/mL” value amounted to 70.0%.
Turning to `CN(Cc1ccccc1)c1nc(CN2CCN(C(c3ccc(Cl)cc3)c3ccc(Cl)cc3)CC2)nc2ccccc12` [Formula 43], the “SPA ASSAY % Residual T @ 2 ug/mL” value is recorded as 80.7%.
In the case of `Clc1ccc(C(c2ccc(Cl)cc2)N2CCN(Cc3nc(N4CCc5ccccc5C4)c4ccccc4n3)CC2)cc1` [Formula 44] it was 83.9%.
With `CN(CCc1ccccn1)c1nc(CN2CCN(C(c3ccc(Cl)cc3)c3ccc(Cl)cc3)CC2)nc2ccccc12` [Formula 45], the “SPA ASSAY % Residual T @ 2 ug/mL” value is recorded as 61.6%.
In the case of `Clc1ccc(C(c2ccc(Cl)cc2)N2CCN(Cc3nc(N4CCN(c5ccccc5)CC4)c4ccccc4n3)CC2)cc1` [Formula 46] it was 87.5%.
With `Clc1ccc(C(c2ccc(Cl)cc2)N2CCN(Cc3nc(N4CCN(c5ncccn5)CC4)c4ccccc4n3)CC2)cc1` [Formula 47] the figure was 85.0%.
In the case of `O=C(C1CCCO1)N1CCN(c2nc(CN3CCN(C(c4ccc(Cl)cc4)c4ccc(Cl)cc4)CC3)nc3ccccc23)CC1` (stereo not shown) [Formula 48] it was 66.0%.
As for `CCN(CC)C(=O)C1CCCN(c2nc(CN3CCN(C(c4ccc(Cl)cc4)c4ccc(Cl)cc4)CC3)nc3ccccc23)C1` (stereo not shown) [Formula 49], the “SPA ASSAY % Residual T @ 2 ug/mL” value came out at 65.7%.
Regarding `CN(C)[C@@H]1CCN(c2nc(CN3CCN(C(c4ccc(Cl)cc4)c4ccc(Cl)cc4)CC3)nc3ccccc23)C1` [Formula 50], the “SPA ASSAY % Residual T @ 2 ug/mL” value amounted to 53.0%.
In the case of `OC1CCN(c2nc(CN3CCN(C(c4ccc(Cl)cc4)c4ccc(Cl)cc4)CC3)nc3ccccc23)CC1` [Formula 51] it was 61.6%; in that of `NC(=O)C1CCN(c2nc(CN3CCN(C(c4ccc(Cl)cc4)c4ccc(Cl)cc4)CC3)nc3ccccc23)CC1` [Formula 52], 79.9%.
With `COC(=O)C1CCN(c2nc(CN3CCN(C(c4ccc(Cl)cc4)c4ccc(Cl)cc4)CC3)nc3ccccc23)CC1` [Formula 53] the figure was 62.7%.
In the case of `COC(=O)[C@@H](Nc1nc(CNC(=O)Nc2ccccc2C(F)(F)F)nc2ccccc12)C(C)C` [Formula 54], the “SPA ASSAY % Residual T @ 2 ug/mL” value was 48.1%.
With `COC(=O)[C@@H](Nc1nc(CNC(=O)Nc2ccc(Cl)c(Cl)c2)nc2ccccc12)C(C)C` [Formula 55] the figure was 57.0%; with `COC(=O)[C@@H](Nc1nc(CNC(=O)Nc2cc(Cl)cc(Cl)c2)nc2ccccc12)C(C)C` [Formula 56], 52.3%; with `COC(=O)[C@@H](Nc1nc(CNC(=O)Nc2ccccc2-c2ccccc2)nc2ccccc12)C(C)C` [Formula 57], 52.7%.
With `COC(=O)[C@@H](Nc1nc(CNC(=O)Nc2cccc(Br)c2)nc2ccccc12)C(C)C` [Formula 58], the “SPA ASSAY % Residual T @ 2 ug/mL” value was 44.9%.
On to `CC(C)[C@H](Nc1nc(CNC(=O)N[C@H](C)c2ccccc2)nc2ccccc12)C(N)=O` [Formula 59], for which the “SPA ASSAY % Residual T @ 2 ug/mL” value turned out to be 56.8%.
In the case of `COc1ccc(Cl)cc1NC(=O)NCc1nc(N[C@H](C(N)=O)C(C)C)c2ccccc2n1` [Formula 60] it was 60.0%.
Regarding `CC(C)CCN(C)Cc1nc(NCCCN(C)C)c2ccccc2n1` [Formula 61], the “SPA ASSAY % Residual T @ 2 ug/mL” value is on record as 31.6 (3) %.
As to `CCC(C)CN(C)Cc1nc(NCCCN(C)C)c2ccccc2n1` (stereo not shown) [Formula 62], the “SPA ASSAY % Residual T @ 2 ug/mL” value is 50.0 (3) %.
With `CN(C)CCCNc1nc(CN(C)Cc2ccco2)nc2ccccc12` [Formula 63] the figure was 52.7%.
In the case of `CN(C)CCCNc1nc(CN(C)Cc2ccoc2)nc2ccccc12` [Formula 64] it was 50.7 (3) %.
With `CN(C)CCCNc1nc(CN(C)Cc2cccs2)nc2ccccc12` [Formula 65] the figure was 65.5%.

The values are drawn from patent publication US7790474B1, “p53 modulators” (Schering Corporation, priority 2005, dated 2010).
